Reference: patent US20140161729A1, “COFLUORONS AND METHODS OF MAKING AND USING THEM” (CORNELL UNIVERSITY, priority 2011, published 2014)
Blank lines part the entries; values can stand above or below the molecule they belong to.

Experiments:
[1] = Fluorescence measurements of cofluoron models (linker element monomers and their multimers with boronic acids); format: physicochemical; settings: for fluorescence change on addition to linker element SL1 (2-hydroxy-3-naphthalenecarboxamide) / fluorescence change on addition to linker element SL3 (gallic acid ethanolamide): boronic acid 300 μM; for fluorescence change on addition to linker element SL1 (2-hydroxy-3-naphthalenecarboxamide): SL1 100 μM, FIG. 6A; for fluorescence change on addition to linker element SL3 (gallic acid ethanolamide): SL3 100 μM, FIG. 6B
[2] = Fluorescence measurements of cofluoron monomers and multimers without target; format: physicochemical; settings: for maximum fluorescence emission / wavelength of maximum emission: 100 μM (each), 0.1M phosphate pH 7.4, 100 μM EDTA, excited at 300 nM
Experimental: The fluorescence properties of cofluorons were measured in 0.1M HEPES or 0.1M phosphate buffer at pH 7.4 in 96- or 384-well black plates using a Molecular Dynamics SpectraMax M5 plate reader. Cofluoron samples were excited at discrete wavelengths and the fluorescence emission was scanned across a range of wavelengths (between 400 and 750 nm). The fluorescence properties of individual cofluoron monomers, as well as the fluorescent properties of cofluoron multimers formed by association of different combinations of cofluoron monomers, were tested and compared.
Fluorescence emission spectra were recorded for cofluoron monomers T147 and T27F individually at a concentration of 100 μM as well as in combination where each cofluoron monomer was at a concentration of 100 μM, in a 0.1M phosphate buffer at pH 7.4 containing 100 μM EDTA. The samples were excited at 300 nM and fluorescence emissions were measured between 300-750 nm on a Spectramax M5 spectrofluorometer. […] The fluorescence emission was enhanced to 4062 RFU and the emission wavelength shifted to 420 nm when the two cofluoron monomers were combined (See FIG. 19).
FIGS. 21 through 34 show the results of fluorescent measurements on the monomers T27 or T27F containing a dihydroxy moiety and multimers formed by mixing the dihydroxy compound with various monomer binding partners containing a boronic acid. These multimers have increased affinity for human mast cell β2-tryptase as compared to the monomers. The fluorescence properties of cofluorons were measured 0.1M phosphate buffer at pH 7.4 containing either 100 or 200 μM EDTA, in 96- or 384-well black plates using a Molecular Dynamics SpectraMax M5 plate reader. Cofluoron samples were excited at discrete wavelengths and the fluorescence emission was scanned across a range of wavelengths (between 400 and 750 nm).

[3] = target: Tryptase (Homo sapiens, UniProt P20231); test: Fluorescence of cofluoron pairs in the presence or absence of Tryptase; format: binding; settings: phosphate buffer pH 7.4, 200 mM NaCl, excited at 360 nm
Chain of Tryptase (P20231 31-275): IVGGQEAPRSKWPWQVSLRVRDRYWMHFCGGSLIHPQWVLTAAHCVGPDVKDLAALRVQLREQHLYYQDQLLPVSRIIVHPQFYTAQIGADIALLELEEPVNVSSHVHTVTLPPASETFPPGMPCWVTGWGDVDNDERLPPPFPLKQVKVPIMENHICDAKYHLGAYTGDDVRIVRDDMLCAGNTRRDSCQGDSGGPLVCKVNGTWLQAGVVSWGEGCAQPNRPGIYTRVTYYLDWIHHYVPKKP
Experimental: The fluorescence emission measurements on cofluorons binding to the target tryptase were measured in 0.1M HEPES or 0.1M phosphate buffer at pH 7.4 in 96- or 384-well black plates using a Molecular Dynamics SpectraMax M5 plate reader. Cofluoron samples were excited at discrete wavelengths and the fluorescence emission was scanned across a range of wavelengths (between 400 and 750 nm). The fluorescence properties of cofluoron monomers and cofluoron multimers in the presence of 3 μM tryptase as well as in the absence of tryptase were measured and compared.
To test whether the cofluorons retained their fluorescence when binding to the target Tryptase, fluorescence were measured on the cofluoron multimers formed by mixing 6 μM T43 with 6 μM T34, T11, T35, and T37, respectively, in the presence or absence of 5 μM Tryptase, in aqueous 50 μM phosphate buffer (pH 7.4) containing 200 mM NaCl. Excitation was at 360 nm, and the portion of emission containing meaningful signal is between 400 nm and 550 nm.

[4] = target: human mast cell β2-tryptase (Homo sapiens, UniProt P20231); test: Binding of cofluoron monomers and dimers to tryptase (IC50, affinity); settings: 1:1 combination with T27 or T27F
Chain of human mast cell β2-tryptase (P20231 31-275): as above

[5] = tested on: human mast cell line; test: Intracellular fluorescence of cofluorons (microscopy under UV excitation); format: cell-based; settings: 100 μM (each) cofluoron monomer
Experimental: Human mast cell β2-tryptase containing cells, grown in standard media, were incubated with 100 μM monomer 1 for 15 minutes at room temperature, followed by the addition of 100 μM monomer 2. Stock concentrations of cofluorons, 50 mM in DMSO, were diluted in media immediately before use. For localization studies, 10.5% PEG and 0.0005% berberine were added to costain mast cell granules. Fluorescent signals were detected using an inverted CKX41 Olympus microscope under UV excitation and an 100× oil immersion lens. Images were recorded using an Olympus DP20 digital camera.

[6] = 100 μM 2-hydroxy-3-naphthalenecarboxamide + 300 μM boronic acid, 0.1M phosphate pH 7.4, 50% DMSO, excited at 350 nm

Compound: OB(O)c1cc2ccccc2o1 [2d, benzofuran-2-boronic acid]
fluorescence change on addition to linker element SL1 (2-hydroxy-3-naphthalenecarboxamide) [1]: stronger fluorescent signal, as well as a fluorescent emission wavelength shift to a lower wavelength
fluorescence change on addition to linker element SL3 (gallic acid ethanolamide) [1]: stronger fluorescent signal, as well as a fluorescent emission wavelength shift to a higher wavelength

Compound: OB(O)c1cccnc1F [2b, 2-fluoropyridine-3-boronic acid]
fluorescence change on addition to linker element SL1 (2-hydroxy-3-naphthalenecarboxamide) [1]: stronger fluorescent signal, as well as a fluorescent emission wavelength shift to a lower wavelength
fluorescence change on addition to linker element SL3 (gallic acid ethanolamide) [1]: stronger fluorescent signal, as well as a fluorescent emission wavelength shift to a higher wavelength

Compound: NCc1cccc(C2CCN(C(=O)c3cccc4sc(B(O)O)cc34)CC2)c1 [T37]
fluorescent signal enhancement of multimer formed with T43, among all multimers tested ([2]; 100 μM T43 + 100 μM partner, 0.1M phosphate pH 7.4 aqueous, excited at 360 nm): strongest fluorescent signal enhancements

Compound: OB(O)c1cc(F)cc(F)c1 [2c, 3,5-difluorophenylboronic acid]
fluorescence change on addition to linker element SL1 (2-hydroxy-3-naphthalenecarboxamide) [1]: stronger fluorescent signal, as well as a fluorescent emission wavelength shift to a lower wavelength
fluorescence change on addition to linker element SL3 (gallic acid ethanolamide) [1]: stronger fluorescent signal, as well as a fluorescent emission wavelength shift to a higher wavelength

emission peak ([2]; T43 100 μM, alone or with 100 μM boronic acid partners, 0.1M phosphate pH 7.4 aqueous, excited at 360 nm): 440 nm
fluorescent signal between 400 nm and 550 nm, monomer without boronic acid partner ([3]; 6 μM): essentially no fluorescent signal
Compound: NCc1cccc(C2CCN(C(=O)/C=C/c3cc(O)c(O)c(O)c3)CC2)c1 [T43]

fluorescent emission peak ([1]; methyl 3,4,5-trihydroxybenzoate 100 μM, alone or with 300 μM boronic acids, 0.1M phosphate pH 7.4, 50% DMSO, excited at 350 nm): about 390 nm
Compound: COC(=O)c1cc(O)c(O)c(O)c1 [methyl 3,4,5-trihydroxybenzoate]

enhancement of fluorescent emission signal at 420 nm over monomer 2-hydroxy-3-naphthalenecarboxamide [1, 6]: about 40 fold
Compound: OB(O)c1cc2ccccc2o1 [benzofuran-2-boronic acid]

increase in fluorescence emission intensity of 7,8-dihydroxy-4-methylcoumarin on forming oligomer with boronic acid partner ([1]; 100 μM 7,8-dihydroxy-4-methylcoumarin + 300 μM boronic acid, 0.1M phosphate pH 7.4, 50% DMSO, excitation 350 nm, emission 520 nm): did not provide any enhanced signal
Compound: CN(C)c1ccc(B(O)O)cn1 [2-(N,N-dimethylamino)pyridine-5-boronic acid]

maximum fluorescence emission [2]: 380 RFU
wavelength of maximum emission [2]: 520 nm
Compound: NCc1ccc(F)c(C2CCN(C(=O)c3cccc4cc(O)c(O)cc34)CC2)c1 [T27F]

maximum fluorescence emission [2]: 194 RFU
wavelength of maximum emission [2]: 390 nm
Compound: CN(Cc1ccccc1B(O)O)c1ccc(C(=O)N2CCC(c3cccc(CN)c3)CC2)cc1 [T147, (2-(((4-(4-(3-(aminomethyl)phenyl)piperidine-1-carbonyl)phenyl)(methyl)amino)methyl)phenyl)boronic acid]
affinity to human β-tryptase of dimer versus monomers [4]: higher affinity to human β-tryptase than either monomer

fluorescent emission maximum ([1]; 2-hydroxy-3-naphthalenecarboxamide 100 μM, alone or with 300 μM boronic acids, 0.1M phosphate pH 7.4, 50% DMSO, excited at 350 nm): 500 nm
fluorescent emission maximum ([1]; 2-hydroxy-3-naphthalenecarboxamide alone or with boronic acids, phosphate pH 7.4, absence of DMSO, excited at 350 nm): about 510 nm
Compound: NC(=O)c1cc2ccccc2cc1O [2-hydroxy-3-naphthalenecarboxamide, 2-Hydroxy-3-naphthalenecarboxamide]

enhancement of fluorescent emission signal at 420 nm over monomer 2-hydroxy-3-naphthalenecarboxamide [1, 6]: more than 80 fold
Compound: OB(O)c1cccnc1F [2-fluoropyridine-3-boronic acid]

fluorescent emission intensity at 390 nm, fold higher than 3,4,5-trihydroxybenzamide alone ([1]; multimer with 3,4,5-trihydroxybenzamide, 100 μM each, 0.1M HEPES pH 7.9, 50% DMSO, excited at 340 nm): 10 fold
Compound: OB(O)c1ccccc1F [2-fluorophenylboronic acid]

enhancement of fluorescent emission signals at 460 nm over monomer methyl 3,4,5-trihydroxybenzoate ([1]; 100 μM methyl 3,4,5-trihydroxybenzoate + 300 μM boronic acid, 0.1M phosphate pH 7.4, 50% DMSO, excited at 350 nm): about 7 fold
Compound: OCc1ccccc1B(O)O [2-(hydroxymethyl)phenylboronic acid]

Compound: Cl.NCc1cccc(C2CCN(C(=O)/C=C/c3ccc(O)c(O)c3)CC2)c1 [T24, (E)-1-(4-(3-(aminomethyl)phenyl)piperidin-1-yl)-3-(3,4-dihydroxyphenyl)prop-2-en-1-one hydrochloride]
fluorescent staining of cells [5]: somewhat brighter staining

fluorescent signal of dimer with T43 in the absence of tryptase ([3]; 6 μM each): hardly any fluorescent signal
fluorescent signal enhancement in the presence of tryptase versus in the absence of tryptase ([3]; pair with T43, 6 μM each, 5 μM Tryptase): 3 fold
Compound: NCc1cccc(C2CCN(C(=O)/C=C/c3cccc(B(O)O)c3)CC2)c1 [T34]

enhancement of fluorescent emission signal at 420 nm over monomer 2-hydroxy-3-naphthalenecarboxamide [1, 6]: about 40 fold
fluorescent signal enhancement of multimer with 2-hydroxy-3-naphthalenecarboxamide ([1]; 100 μM 2-hydroxy-3-naphthalenecarboxamide + 300 μM boronic acid, phosphate pH 7.4, absence of DMSO, excited at 350 nm): 30 fold
Compound: OB(O)c1cc(F)cc(F)c1 [3,5-difluorophenylboronic acid]
